Common to all, as to experiment: growth of human tumour cells (NCI), 48 h
In experiment [1] the test system is 786-0 renal.
For experiment [2], the system named is CAKI-1 renal.
In experiment [3] the test system is HCC-2998 colon.
The test system of experiment [4] is HCT-116 colon.
Experiment [5] has as its system HCT-15 colon.
In experiment [6] the test system is MDA-N.
The test system of experiment [7] is NCI-H460 lung.
The subject of experiment [8] is OVCAR-3 ovarian.
The subject of experiment [9] is OVCAR-5 ovarian.
Experiment [10] deals with OVCAR-8 ovarian.
In experiment [11] the test system is SK-MEL-2 melanoma.
For experiment [12], the system named is SK-OV-3 ovarian.
In experiment [13] the test system is SNB-19 CNS.
Experiment [14] concerns SW-620 colon.

We go through ten compounds from PubChem BioAssay (NCI).

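Following 48 hours of exposure in 96-well plates, responses at five concentrations were used to interpolate endpoints linearly. The concentration for full growth arrest is given as TGI.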

Regarding `CCCCCCc1cc2cc(C(=O)Nc3ccccc3)c(=N)oc2cc1O`, the TGI in [1] is over 35.8 µM; in experiment [2] it was over 100 µM; in experiment [3], 20.8 µM; in experiment [4], 6.59 µM; in experiment [5], over 100 µM; in experiment [6] it was over 34.3 µM. In addition, the TGI in experiment [7] is over 100 µM; in experiment [8] it was 5.1 µM; in experiment [9] it was over 100 µM; in experiment [10] it was over 49.6 µM; in experiment [11], 14.7 µM; in experiment [12] it was over 26.5 µM. The TGI was over 73.8 µM in [13] and over 100 µM in experiment [14].
On to `COc1cc2c(C)cc(O)cc2c2cc(O)c(C)cc12`, for which the TGI in experiment [1] was found to be 17.7 µM; in experiment [2], 22.4 µM; in experiment [3], 24.4 µM; in experiment [4], 20.7 µM; in experiment [5], 17.9 µM; in experiment [6], 20 µM. Besides, the TGI in experiment [7] was determined as 9.73 µM; in experiment [8], 22.3 µM; in [9] it was 24.3 µM; in experiment [10], 40.2 µM; in experiment [11], 31.3 µM; in experiment [12], 23.8 µM. Moreover, the values for the TGI in experiment [13] and in experiment [14] were 21.4 µM and 19.8 µM, respectively.
As for `Nc1nc(SC/C=C/c2ccccc2)c2[nH]cnc2n1`, the TGI in experiment [1], in [2], in experiment [3], in experiment [4], in [5] and in experiment [6] was over 100 µM throughout. For the same compound, the TGI in experiment [7], in [8], in experiment [9], in [10], in experiment [11] and in experiment [12] was over 100 µM in each case. Further, the TGI in experiment [13] and in experiment [14] was over 100 µM throughout.
Consider `COC(=O)c1cc2ccc(N)nc2[nH]c1=O`, for which the TGI in experiment [1], in [2], in experiment [3], in [4], in experiment [5] and in experiment [6] was over 100 µM each time. The TGI in experiment [7], in experiment [8], in experiment [9], in experiment [10], in experiment [11] and in [12] was over 100 µM throughout. The TGI in experiment [13] and in experiment [14] was over 100 µM in each case.
Turning to `CCC(C)OC(=O)/C(Br)=C1/OC(=O)c2ccccc2-c2ccccc21` (stereo not given), the TGI in [1] is over 100 µM; in [2], over 100 µM; in [3] it was 39.4 µM; in experiment [4], 36.6 µM; in experiment [5], 38.5 µM; in [6] it was over 100 µM. Also, the TGI in experiment [7] was 73.9 µM; in experiment [8], over 100 µM; in experiment [9] it was over 100 µM; in experiment [10] it was over 100 µM; in [11] it was over 100 µM; in [12], over 100 µM. Moreover, the TGI in [13] and in experiment [14] was over 100 µM each time.
For `CC(O)C1(CNc2cc(Cl)nc(N)n2)CCC1` (stereo not given), the TGI in experiment [1], in experiment [2], in experiment [3], in experiment [4], in experiment [5] and in experiment [6] was over 100 µM in each case. Besides, the TGI in experiment [7], in [8], in experiment [9], in experiment [10], in [11] and in [12] was over 100 µM each time. Also, the TGI in experiment [13] and in experiment [14] was over 100 µM each time.
As to `O=[N+]([O-])/C(C(Cl)=C(Cl)Cl)=C(/Cl)Sc1ccccc1`, the TGI in experiment [1] was 2.62 µM; in experiment [2], 6.57 µM; in experiment [3], 5.7 µM; in experiment [4], 2.58 µM; in experiment [5], 4.85 µM; in experiment [6], 3.78 µM. For the same compound, the TGI in experiment [7] is 34.6 µM; in [8] it was 3.61 µM; in experiment [9], 3.9 µM; in experiment [10], 0.786 µM; in experiment [11], 27.4 µM; in experiment [12] it was 34.3 µM. Further, the TGI in experiment [13] was found to be 36 µM; in experiment [14], 1.07 µM.
For the compound `C/C=C(/C)C(=O)O[C@@H]1CCN2CC[C@H](COC(=O)/C(=C/C)CO)C12` (stereo not given in full), the TGI in [1] is over 100 µM; in experiment [2], over 100 µM; in experiment [3], 44 µM; in experiment [4], over 100 µM; in experiment [5], over 100 µM; in [6], over 100 µM. Besides, the TGI in experiment [7], in [8], in experiment [9], in experiment [10], in experiment [11] and in [12] was over 100 µM throughout. In addition, the TGI in experiment [13] and in [14] was over 100 µM each time.
On to `CCCCNC(=S)Nc1nc(C(=O)NNC(=S)Nc2ccccc2)cs1`, for which the TGI in experiment [1], in experiment [2], in [3], in experiment [4], in experiment [5] and in [6] was over 100 µM each time. Besides, the TGI in [7], in experiment [8], in experiment [9], in experiment [10], in [11] and in experiment [12] was over 100 µM throughout. The TGI in experiment [13] and in experiment [14] was over 100 µM each time.
Consider `CN(C)CCCN1CCC2(CCC(C(C)(C)C)CC2)CC1`, for which the TGI in experiment [1] was 3.09 µM; in [2], 7.55 µM; in experiment [3], 0.417 µM; in experiment [4], 3.19 µM; in experiment [5], 9.55 µM; in experiment [6], 2.44 µM. In addition, the TGI in experiment [7] is 2.36 µM; in experiment [8], 10.9 µM; in experiment [9], 9.08 µM; in [10], 16.5 µM; in [11], 3.26 µM; in [12] it was 22.8 µM. The figures for the TGI in [13] and in experiment [14] were 11.8 µM and 7.87 µM, respectively.
